Laboratory results: PubChem BioAssay AID1745844 (Carcinogenic Potency Database (CPDB), 2022)

Test system: rodent lifetime carcinogenesis bioassay, tumor incidence TD50
Experiment: chronic cancer bioassays in animals – CPDB, compiled studies (AID 1745844)
Conditions: mouse, strain B6C3F1, males, inhaled

C=CC=C
TD50 (site: all sites, lesion: malignant lymphoma, mixed type + malignant lymphoma, lymphocytic type + malignant lymphoma, dosed 26 weeks, study length 104 weeks): 31.3 mg/kg/day | TD50 (site: all sites, lesion: malignant lymphoma, mixed type + malignant lymphoma, lymphocytic type + malignant lymphoma, dosed 40 weeks, study length 104 weeks): 108 mg/kg/day | TD50 (site: all sites, lesion: malignant lymphoma, mixed type + malignant lymphoma, lymphocytic type + malignant lymphoma, dosed 52 weeks, study length 104 weeks): 46.4 mg/kg/day | TD50 (site: all sites, lesion: malignant lymphoma, mixed type + malignant lymphoma, dosed 13 weeks, study length 104 weeks): 78.1 mg/kg/day | TD50 (site: all sites, lesion: malignant lymphoma, mixed type + malignant lymphoma, dosed 26 weeks, study length 104 weeks): 111 mg/kg/day | TD50 (site: all sites, lesion: malignant lymphoma, mixed type + malignant lymphoma, dosed 40 weeks, study length 104 weeks): 487 mg/kg/day | TD50 (site: all sites, lesion: malignant lymphoma, mixed type + malignant lymphoma, dosed 52 weeks, study length 104 weeks): 76.2 mg/kg/day | TD50 (site: any site (literature study), lesion: several types, types named in the paper, dosed 13 weeks, study length 104 weeks): 6.92 mg/kg/day | TD50 (site: any site (literature study), lesion: several types, types named in the paper, dosed 26 weeks, study length 104 weeks): 12.5 mg/kg/day | TD50 (site: any site (literature study), lesion: several types, types named in the paper, dosed 40 weeks, study length 104 weeks): 10.8 mg/kg/day | TD50 (site: any site (literature study), lesion: several types, types named in the paper, dosed 52 weeks, study length 104 weeks): 5.84 mg/kg/day | TD50 (site: any site (literature study), lesion: several types, types named in the paper, dosed 60 weeks, study length 60 weeks): 28.8 mg/kg/day | TD50 (site: any site (literature study), lesion: several types, types named in the paper, dosed 82 weeks, study length 104 weeks): 10.5 mg/kg/day | TD50 (site: brain, lesion: olfactory lobe, glioma malignant, dosed 13 weeks, study length 104 weeks): 230 mg/kg/day | TD50 (site: brain, lesion: olfactory lobe, glioma malignant, dosed 26 weeks, study length 104 weeks): 403 mg/kg/day | TD50 (site: brain, lesion: olfactory lobe, neuroblastoma malignant, dosed 13 weeks, study length 104 weeks): 394 mg/kg/day | TD50 (site: forestomach, lesion: papilloma, NOS + squamous-cell carcinoma + squamous-cell papilloma, dosed 60 weeks, study length 60 weeks): 120 mg/kg/day | TD50 (site: forestomach, lesion: papilloma, NOS + squamous-cell papilloma, dosed 60 weeks, study length 60 weeks): 140 mg/kg/day | TD50 (site: forestomach, lesion: squamous-cell carcinoma + squamous-cell papilloma, dosed 13 weeks, study length 104 weeks): 44.8 mg/kg/day | TD50 (site: forestomach, lesion: squamous-cell carcinoma + squamous-cell papilloma, dosed 26 weeks, study length 104 weeks): 91.4 mg/kg/day | TD50 (site: forestomach, lesion: squamous-cell carcinoma + squamous-cell papilloma, dosed 40 weeks, study length 104 weeks): 171 mg/kg/day | TD50 (site: forestomach, lesion: squamous-cell carcinoma + squamous-cell papilloma, dosed 52 weeks, study length 104 weeks): 42.8 mg/kg/day | TD50 (site: forestomach, lesion: squamous-cell carcinoma + squamous-cell papilloma, dosed 60 weeks, study length 60 weeks): 557 mg/kg/day | TD50 (site: forestomach, lesion: squamous-cell carcinoma + squamous-cell papilloma, dosed 82 weeks, study length 104 weeks): 197 mg/kg/day | TD50 (site: forestomach, lesion: squamous-cell carcinoma, dosed 13 weeks, study length 104 weeks): 43.4 mg/kg/day | TD50 (site: forestomach, lesion: squamous-cell carcinoma, dosed 26 weeks, study length 104 weeks): 136 mg/kg/day | TD50 (site: forestomach, lesion: squamous-cell carcinoma, dosed 52 weeks, study length 104 weeks): 154 mg/kg/day | TD50 (site: forestomach, lesion: squamous-cell papilloma, dosed 13 weeks, study length 104 weeks): 117 mg/kg/day | TD50 (site: forestomach, lesion: squamous-cell papilloma, dosed 26 weeks, study length 104 weeks): 284 mg/kg/day | TD50 (site: forestomach, lesion: squamous-cell papilloma, dosed 40 weeks, study length 104 weeks): 171 mg/kg/day | TD50 (site: forestomach, lesion: squamous-cell papilloma, dosed 52 weeks, study length 104 weeks): 77.7 mg/kg/day | TD50 (site: forestomach, lesion: squamous-cell papilloma, dosed 82 weeks, study length 104 weeks): 230 mg/kg/day | TD50 (site: heart + peritoneal cavity, lesion: hemangiosarcoma, dosed 60 weeks, study length 60 weeks): 96.7 mg/kg/day | TD50 (site: heart, lesion: hemangiosarcoma, dosed 13 weeks, study length 104 weeks): 32.6 mg/kg/day | TD50 (site: heart, lesion: hemangiosarcoma, dosed 26 weeks, study length 104 weeks): 18.5 mg/kg/day | TD50 (site: heart, lesion: hemangiosarcoma, dosed 40 weeks, study length 104 weeks): 21.9 mg/kg/day | TD50 (site: heart, lesion: hemangiosarcoma, dosed 52 weeks, study length 104 weeks): 13.9 mg/kg/day | TD50 (site: heart, lesion: hemangiosarcoma, dosed 60 weeks, study length 60 weeks): 96.7 mg/kg/day | TD50 (site: heart, lesion: hemangiosarcoma, dosed 82 weeks, study length 104 weeks): 64.8 mg/kg/day | TD50 (site: jejunum, lesion: carcinoma, dosed 82 weeks, study length 104 weeks): 310 mg/kg/day | TD50 (site: kidney, lesion: adenoma + tubule adenoma, dosed 52 weeks, study length 104 weeks): 190 mg/kg/day | TD50 (site: kidney, lesion: tubule adenoma, dosed 13 weeks, study length 104 weeks): 201 mg/kg/day | TD50 (site: kidney, lesion: tubule adenoma, dosed 26 weeks, study length 104 weeks): 961 mg/kg/day | TD50 (site: kidney, lesion: tubule adenoma, dosed 40 weeks, study length 104 weeks): 161 mg/kg/day | TD50 (site: kidney, lesion: tubule adenoma, dosed 82 weeks, study length 104 weeks): 268 mg/kg/day | TD50 (site: liver, lesion: hepatoblastoma + hepatocellular carcinoma, dosed 13 weeks, study length 104 weeks): 23.4 mg/kg/day | TD50 (site: liver, lesion: hepatoblastoma + hepatocellular carcinoma, dosed 26 weeks, study length 104 weeks): 60 mg/kg/day | TD50 (site: liver, lesion: hepatoblastoma + hepatocellular carcinoma, dosed 52 weeks, study length 104 weeks): 41.4 mg/kg/day | TD50 (site: liver, lesion: hepatocellular adenoma + hepatoblastoma + hepatocellular carcinoma, dosed 13 weeks, study length 104 weeks): 15.1 mg/kg/day | TD50 (site: liver, lesion: hepatocellular adenoma + hepatoblastoma + hepatocellular carcinoma, dosed 26 weeks, study length 104 weeks): 23.8 mg/kg/day | TD50 (site: liver, lesion: hepatocellular adenoma + hepatoblastoma + hepatocellular carcinoma, dosed 52 weeks, study length 104 weeks): 13.8 mg/kg/day | TD50 (site: liver, lesion: hepatocellular adenoma + hepatocellular carcinoma + neoplastic nodule, dosed 13 weeks, study length 104 weeks): 15.1 mg/kg/day | TD50 (site: liver, lesion: hepatocellular adenoma + hepatocellular carcinoma + neoplastic nodule, dosed 26 weeks, study length 104 weeks): 23.8 mg/kg/day | TD50 (site: liver, lesion: hepatocellular adenoma + hepatocellular carcinoma + neoplastic nodule, dosed 40 weeks, study length 104 weeks): 16.8 mg/kg/day | TD50 (site: liver, lesion: hepatocellular adenoma + hepatocellular carcinoma + neoplastic nodule, dosed 52 weeks, study length 104 weeks): 14.6 mg/kg/day
